The record followed here is patent US20150219624A1, “METHODS FOR IDENTIFYING ANTI-CANCER COMPOUNDS” (MEMORIAL SLOAN KETTERING CANCER CENTER, priority 2013, published 2015).

Assay type in all cases: cell-based
Experiment [1] relates to SKNCM. The experiment is described as follows: Silvestrol in neuroblastoma cell lines in vitro: SKNCM. Particulars: SKNCM cells. As to the method: (§1) The effect of silvestrol on several neuroblastoma cell lines was evaluated.
For experiment [2], the system named is BE(2)C. The experiment is described as follows: Silvestrol in neuroblastoma cell lines in vitro: BE(2)C. The conditions noted are these: Homo sapiens; BE(2)C cells, N-MYC. As to the method: as §1
In experiment [3] the test system is murine T-ALL cells. The experiment is described as follows: Silvestrol effect on murine T-ALL cells with engineered genetic lesions. Particulars: cells expressing Akt, mutant IL7R, eIF4E or shRNA against Pten.
Experiment [4] deals with GQ construct. The experiment is described as follows: Luciferase reporter with four 12-mer motifs (GQs) vs random control 5'UTR. Particulars: 25 nM, 24 hours. As to the method:
Luciferase assays. Four tandem repeats of the (CGG)4 12-mer motif (GQs) or random sequence matched for length and GC content (random) were cloned into the 5′UTR of Renilla luciferase plasmid pGL4.73. Empty firefly luciferase plasmid pGL4.13 or HCV-IRES firefly were used as internal controls. Luciferase assays were performed using Dual-Luciferase Reporter Assay System (Promega E1960) following the manufacturer's instructions. GQs sequence:
Next, directly testing the translational effect of the 12-mer sequence motif was sought. Briefly, a luciferase reporter system was constructed to directly compare four 12-mer motifs in tandem reflecting the common occurrence of multiple motifs in sensitive mRNAs (GQ construct) to a random sequence of equal length and GC content (control construct) and using an IRES-driven firefly luciferase as an internal control (FIG. 4E). […] The RNA helicases DHX9 and DHX36 have been implicated in resolving G-quadruplex structures (Booy et al., 2012; Chakraborty and Grosse, 2011), however predominant expression was found of eIF4A in T-ALL (FIG. 4G) (Van Vlierberghe et al., 2011). Further direct testing was done of the effect of RNAi-mediated eIF4A knockdown in the same assay and a striking decrease in the translation from the GQ reporter observed, with little effect on the control sequence (FIG. 4H/I). […]

Experiment [5] relates to human T-ALL lines. The experiment is described as follows: mRNA levels of target genes (real-time quantitative PCR). The conditions noted are these: 25 nM. The method, then: Real-Time Quantitative PCR. Total RNA was extracted using AllPrep DNA/RNA/Protein Mini Kit (Qiagen 80004). Normal CD3+ T-cell RNA mixed from healthy donors was purchased from Miltenyi Biotec (130-093-164). cDNA was made using SuperScript III First-Strand (Invitrogen 18080-400). Analysis was performed by ΔΔCt. Applied Biosystems Taqman GeneExpression Assays: human Myc Hs00153408_m1, hsa-miR-19b RT and TM 396, Rnu6b RT and TM 001093, and mouse Myc Mm00487804_m1.
Given the complexity of the RF data analysis, it was important to directly confirm loss of expression for at least some of these proteins. Briefly, immunoblots on JURKAT and KOPT-K1 cells treated with silvestrol (25 nM) and loaded with equal amounts of total protein confirmed dramatic loss of MYC, NOTCH1, BCL2, and CCND3 proteins (FIG. 6A). The effect on MYC was especially striking, it was dose dependent (FIG. 6B), lasted for 48 h, and was also achieved in xenografts in vivo (Figure S6A-B). […] As expected, ACTIN, TUBULIN, and GAPDH were not affected (FIG. 6A). […] The small and significant increase in MYC mRNA levels might be consistent with prior reports of a MYC auto-regulatory mechanism (Penn et al., 1990a; Penn et al., 1990b) (FIG. 6C).
FIG. 6 depicts validation of selected silvestrol targets. A) Immunoblots of lysates from human T-ALL lines treated with silvestrol (25 nM) and probed as indicated. […]

Experiment [6] has as its system BE(1)N. The experiment is described as follows: Silvestrol in neuroblastoma cell lines in vitro: BE(1)N. Particulars: BE(1)N cells, N-MYC. The method, then: as §1
The subject of experiment [7] is IMR32. The experiment is described as follows: Silvestrol in neuroblastoma cell lines in vitro: IMR32. Particulars: Homo sapiens, IMR-32; IMR32 cells, N_MYC. As to the method: as §1

With `COC(=O)[C@H]1[C@@H](O)[C@@]2(O)c3c(OC)cc(O[C@@H]4O[C@@H]([C@H](O)CO)CO[C@H]4OC)cc3O[C@@]2(c2ccc(OC)cc2)[C@@H]1c1ccccc1` [silvestrol], the IC50 came out at 20.2 nM in experiment [1], 47.8 nM in experiment [2], 2.52 nM in experiment [6] and 2.86 nM in experiment [7]. In addition, the “sensitivity of murine T-ALL cells” value in experiment [3] is given as “no significant difference in sensitivity”. Besides, in experiment [4] (normalized to IRES firefly), the “translation of the GQ construct” value was “reduced the translation”. Further, the “translation of the control luciferase” value in experiment [4] (random sequence control construct) is recorded as “did not reduce the translation”. In addition, in experiment [5], the “corresponding mRNA expression” value is “no decrease”.
